Earlier results in patent publication US9693981B2 (INTEC PHARMA LTD., priority 2008, dated 2017).

How the values were obtained:
[1] = according to the USP 30
[2] = high-fat/heavy meal compared to the fasted state, healthy adults

Which solubility [1] does the source give for CCN(C(C)=O)c1cccc(-c2ccnc3c(C#N)cnn23)c1 [Zaleplon] here?
Its solubility is “very slightly soluble”.

And the AUC [2]?
The AUC was “not significantly affected”.

And the “delay of Tmax” value [2]?
The value was “approximately 2 hours”.

And the “reduction of Cmax” value [2]?
Its value is “approximately 35%”.
